Source: patent publication US20190030114A1, “ISOFORM-SPECIFIC CALPAIN INHIBITORS, METHODS OF IDENTIFICATION, AND USES THEREOF” (WESTERN UNIVERSITY OF HEALTH SCIENCES, priority 2014, published 2019)
Like-named read-outs stand apart in the source and are kept apart here.

What was measured:
calpain-1 = molecular target: T1, calpain-1 (Homo sapiens, UniProt P07384); assay: in vitro calpain-1 inhibition, succinic-Leu-Tyr-AMC substrate; assay type: biochemical
T1 sequence (P07384 1-714): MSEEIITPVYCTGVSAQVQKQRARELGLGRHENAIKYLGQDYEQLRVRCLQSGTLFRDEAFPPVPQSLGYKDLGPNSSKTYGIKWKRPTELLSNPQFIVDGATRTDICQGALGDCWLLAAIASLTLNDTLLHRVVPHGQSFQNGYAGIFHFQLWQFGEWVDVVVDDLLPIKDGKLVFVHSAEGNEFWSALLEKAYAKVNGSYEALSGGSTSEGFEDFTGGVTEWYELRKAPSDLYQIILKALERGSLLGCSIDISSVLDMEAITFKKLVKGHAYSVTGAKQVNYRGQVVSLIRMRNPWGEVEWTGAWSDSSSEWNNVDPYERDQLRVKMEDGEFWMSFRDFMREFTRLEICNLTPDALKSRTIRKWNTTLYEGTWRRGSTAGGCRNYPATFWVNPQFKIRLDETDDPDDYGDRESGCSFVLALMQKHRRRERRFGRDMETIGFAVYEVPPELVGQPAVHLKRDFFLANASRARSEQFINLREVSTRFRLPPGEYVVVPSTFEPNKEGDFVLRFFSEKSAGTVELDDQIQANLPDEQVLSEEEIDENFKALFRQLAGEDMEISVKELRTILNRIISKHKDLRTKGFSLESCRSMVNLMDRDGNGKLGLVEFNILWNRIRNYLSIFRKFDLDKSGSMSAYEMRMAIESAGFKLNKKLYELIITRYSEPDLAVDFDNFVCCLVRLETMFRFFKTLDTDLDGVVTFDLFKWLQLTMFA
T1 sequence (P04632 1-268 partner): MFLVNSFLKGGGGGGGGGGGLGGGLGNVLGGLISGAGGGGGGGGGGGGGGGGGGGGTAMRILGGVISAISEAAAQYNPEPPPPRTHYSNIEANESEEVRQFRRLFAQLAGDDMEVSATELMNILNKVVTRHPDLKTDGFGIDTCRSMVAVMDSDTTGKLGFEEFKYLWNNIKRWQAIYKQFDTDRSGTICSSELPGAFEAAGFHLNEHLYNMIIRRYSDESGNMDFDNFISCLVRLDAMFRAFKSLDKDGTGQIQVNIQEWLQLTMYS
Protocol: Formula 1, where chiral center 1 is the L-form and chiral center 2 is a racemic mixture of D- and L- in this example was introduced at various concentrations (from 1 nM to 10 μM) into an in vitro mix comprising succinic-Leu-Tyr-AMC and calpain-1 or calpain-2 (Sasaki et al, 1984), and the kinetics of the loss of fluorescence were determined for each of the calpains (Powers et al, 2000). […] Therefore, the assessment of selectivity described herein was different than the prior teaching.
Formula 1A, where chiral center 1 is the S-form and chiral center 2 is the S-form was separated from the S-R-form (Formula 1B) using methods that are well-known methods for separating diastereoisomers. Formula 1A, which is also referred to herein as compound 18A, in this example was introduced at various concentrations into an in vitro mix comprising succinic-Leu-Tyr-AMC and μ-calpain or m-calpain (Sasaki et al, 1984), and the kinetics of the loss of fluorescence were determined for each of the calpains.

[1] = test system: cortical neuronal cultures (14 DIV); assay: neuronal death mediated by extrasynaptic NMDA receptor activation; assay type: cell-based; conditions: dose-dependent from 200 nM to 5 μM
Protocol: Results are expressed as percent of neurons positively stained with the Hoechst reagent and are means±S.E.M. of 3-4 experiments (*p<0.01, Student's t-test).
A selective calpain-2 inhibitor blocks neuronal death mediated by extrasynaptic NMDA receptor activation. Cortical neuronal cultures (14 DIV) were treated to induce selective activation of extrasynaptic NMDA receptors, which results in neuronal cell death.

calpain-2 = molecular target: T2, calpain-2 (Homo sapiens, UniProt P17655); conditions: Li et al, 1996; read-out: Ki for calpain-2 (m-calpain), literature; cited from earlier work
T2 sequence (P17655 1-700): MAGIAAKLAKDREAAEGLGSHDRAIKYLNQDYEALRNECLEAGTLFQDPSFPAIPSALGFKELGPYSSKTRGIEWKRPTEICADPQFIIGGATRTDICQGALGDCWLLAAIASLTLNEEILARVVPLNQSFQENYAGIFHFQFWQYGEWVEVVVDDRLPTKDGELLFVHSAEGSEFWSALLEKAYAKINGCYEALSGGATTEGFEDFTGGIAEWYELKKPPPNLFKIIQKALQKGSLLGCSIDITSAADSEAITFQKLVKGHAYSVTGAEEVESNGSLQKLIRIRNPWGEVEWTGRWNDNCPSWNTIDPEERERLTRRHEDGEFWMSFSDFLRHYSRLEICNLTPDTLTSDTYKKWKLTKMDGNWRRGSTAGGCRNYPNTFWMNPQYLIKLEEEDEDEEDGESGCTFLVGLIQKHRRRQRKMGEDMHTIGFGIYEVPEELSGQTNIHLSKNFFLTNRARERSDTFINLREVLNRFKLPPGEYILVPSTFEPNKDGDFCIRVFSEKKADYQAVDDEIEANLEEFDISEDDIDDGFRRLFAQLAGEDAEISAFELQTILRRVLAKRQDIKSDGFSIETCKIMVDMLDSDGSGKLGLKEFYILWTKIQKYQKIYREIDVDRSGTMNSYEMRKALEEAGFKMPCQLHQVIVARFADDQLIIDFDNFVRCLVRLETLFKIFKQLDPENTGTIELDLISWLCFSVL
T2 sequence (P04632 1-268 partner): T1 sequence (P04632 1-268 partner)

**Q.** Which results are given for `CCC(NC(=O)C(CC(C)C)NC(=O)OCc1ccccc1)C(=O)C(=O)NCc1cc(OC)cc(OC)c1` (racemic) [Formula 1, Z-Leu-Abu-CONH—CH2-C6H3 (3, 5-(OMe)2)]?
**A.** Ki (calpain-1; Example 1, chiral center 2 racemic, read-out: Ki of calpain-1, re-determined herein): 1290 nM; Ki (calpain-1; Example 13, n = 3-5, read-out: Ki Calpain-1): 662 nM; Ki (calpain-1; earlier value, unit inferred, read-out: Previous Value (Calpain-1)): 940 nM; IC50 (calpain-1; n = 3-5): 910 nM; neuronal cell death associated with extrasynaptic NMDA receptor activation [1]: reduced the neuronal cell death; neuronal cell death associated with extrasynaptic NMDA receptor activation ([1]; listed as Formula I): reduced neuronal cell death; Ki (calpain-2): 22 nM
